{
  "source": "paper PMC3718762",
  "about": "“Differential Disruption of EWS-FLI1 Binding by DNA-Binding Agents” (PLoS ONE, 2013)",
  "key": {"UbC promoter": {"system": "UbC promoter", "assay": "UbC-Renilla luciferase reporter (internal control) in A673 cells", "format": "cell-based", "details": "Homo sapiens, 16 hours, read-out: IC50 for inhibition of UbC promoter activity", "description": "Ewing sarcoma A673 cells at 50% confluence in 100 mm dishes were transfected with both 5.8 µg of pGL.3b-NR0B1 and 0.2 µg of pGL.3b-Ubc-RL reporter plasmids as above. Eight hours post-transfection, cells were trypsinized and 600 ul (2×10^5) of cells were added to each well of 24 well plates. 5 µl of different concentration of compounds or DMSO control were added to each well. Each treatment was performed in triplicate. Cells were incubated for 16 hours, then cells were lysed in 100 µl of lysis buffer and 10 µl of cell lysate was used for the dual luciferase assay. Renilla luciferase activity was used as an internal control for normalization of nonspecific transcriptional inhibition or cytotoxic effects. Experiments were repeated three times. IC50 values were calculated using Prism (Graphpad).\nTo determine the effect of compounds on EWS-FLI1 activity in cells, we used a reporter assay comprised of the NR0B1 promoter, a prototypical EWS-FLI1-regulated gene, driving expression of firefly luciferase. Renilla luciferase driven by the Ubiquitin C promoter (UbC-RL) was used as an internal control. Confirming prior studies, the NR0B1 promoter was verified to be highly responsive to EWS-FLI1, whereas the UbC promoter activity was not subject to regulation by EWS-FLI1 (Figure S1)."}, "Ovcar-3": {"system": "Ovcar-3", "assay": "MTT cell viability assay", "format": "cell-based", "details": "Homo sapiens, 44 hours", "description": "(§1) Cells were seeded at a density of 1.5×10^5/ml with 100 µl/well in 96 well plates and treated with actinomycin D at 158 nM, 50 nM, 15.8 nM, 5 nM, 1.58 nM, 0.5 nM and 0 (6 wells/treatment) for 44 hours. CellTiter 96 was used to assess cell viability after a 2 hr incubation at 37°C. IC50 values were calculated using Prism.\n(§2) To determine if cells driven by EWS-FLI1 are more sensitive to actinomycin D, we assessed cell growth and viability using a MTT assay after 44 hrs exposure to actinomycin D. Although all cell lines were affected by actinomycin D, the Ewing sarcoma cell lines were as a group more sensitive by comparison to other cell lines tested (Figure 5)."}, "Skov-3": {"system": "Skov-3", "assay": "MTT cell viability assay", "format": "cell-based", "details": "Homo sapiens, SK-OV-3, 44 hours", "description": "as §1, §2"}, "TC-32": {"system": "TC-32", "assay": "MTT cell viability assay", "format": "cell-based", "details": "Homo sapiens, 44 hours", "description": "as §1, §2"}, "A673": {"system": "A673", "assay": "MTT cell viability assay", "format": "cell-based", "details": "Homo sapiens, 44 hours", "description": "as §1, §2"}, "TC-71": {"system": "TC-71", "assay": "MTT cell viability assay", "format": "cell-based", "details": "44 hours", "description": "as §1, §2"}, "PC-3": {"system": "PC-3", "assay": "MTT cell viability assay", "format": "cell-based", "details": "Homo sapiens, 44 hours", "description": "as §1, §2"}, "EW-8": {"system": "EW-8", "assay": "MTT cell viability assay", "format": "cell-based", "details": "EW8, 44 hours", "description": "as §1, §2"}, "Hela": {"system": "Hela", "assay": "MTT cell viability assay", "format": "cell-based", "details": "Homo sapiens, 44 hours", "description": "as §1, §2"}, "Cado-es": {"system": "Cado-es", "assay": "MTT cell viability assay", "format": "cell-based", "details": "44 hours", "description": "as §1, §2"}, "p53": {"molecular_target": "T1, p53 (Homo sapiens, UniProt P04637)", "T1 construct": "made in house; host or cells: bacteria (pGex-6P-1-p53); plasmid was a gift from Dr. Guangchao Sui", "T1 sequence (P04637 whole entry, species assumed)": "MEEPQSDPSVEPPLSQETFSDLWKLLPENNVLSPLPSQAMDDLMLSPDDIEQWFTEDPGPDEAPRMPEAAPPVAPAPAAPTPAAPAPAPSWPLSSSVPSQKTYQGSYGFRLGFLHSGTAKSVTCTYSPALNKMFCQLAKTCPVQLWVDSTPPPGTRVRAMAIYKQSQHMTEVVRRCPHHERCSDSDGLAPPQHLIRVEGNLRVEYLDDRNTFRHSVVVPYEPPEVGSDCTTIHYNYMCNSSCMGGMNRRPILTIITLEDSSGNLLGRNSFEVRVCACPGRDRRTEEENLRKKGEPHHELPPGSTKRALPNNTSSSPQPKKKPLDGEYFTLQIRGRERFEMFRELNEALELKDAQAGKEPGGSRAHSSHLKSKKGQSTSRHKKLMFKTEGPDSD", "assay": "AlphaScreen proximity assay (counterscreen), binding of recombinant p53 to cognate DNA oligo", "text": "An AlphaScreen assay for binding of recombinant EWS-FLI1 to DNA was previously described. Briefly, recombinant EWS-FLI1 and p53 were synthesized in bacteria transformed with pGex-6P-1-EWS-FLI1 or pGex-6P-1-p53, and bound to AlphaScreen acceptor beads. A biotinylated oligonucleotide containing two copies of the EWS-FLI1 binding motif or p53 binding motifs was bound to AlphaScreen donor beads. For EWS-FLI1, the oligo sequence was: […]. The p53 binding oligo sequence was: […]. This assay was used to screen 5,200 compounds, as previously described. IC50 values were calculated with the GraphPad Prism software package.\nWe developed a homogeneous AlphaScreen assay to assess the binding of recombinant EWS-FLI1 to DNA [18]. A parallel assay assessing binding of p53 to DNA was used as a counterscreen. Briefly, in these proximity assays, recombinant GST-EWS-FLI1 or GST-p53 was bound to glutathione-conjugated AlphaScreen acceptor beads, and a synthetic biotinylated oligonucleotide (oligo) containing tandem EWS-FLI1 or p53 binding sites was bound to streptavidin-conjugated AlphaScreen donor beads. Binding of GST-EWS-FLI1 or GST-p53 to the cognate oligo allows singlet oxygen transfer from donor to acceptor beads when excited at 680 nm, with resulting light emission between 520–620 nm."}},
  "note": "Starred links: 1 amine or outer side, 2 acyl side, 3 side chain; linkers in the order of their positions; H or OH if unused. Positions of bridges follow the written chain, without caps; N, C: chain ends. Non-standard residues stand in square brackets, D forms with d. Residues, ends and D or L forms follow the SMILES beside them. Chains are numbered I, II in the order given. Actinocin(9to1) = Cc1c2oc3c(C)ccc(C(=O)[*:1])c3nc-2c(C(=O)[*:2])c(N)c1=O; NMeV = CN[C@H](C(=O)O)C(C)C; Sar = CNCC(=O)O",
  "data": [
    {"molecule": "Cc1c2oc3c(C)ccc(C(=O)N[C@@H]4C(=O)N[C@H](C(C)C)C(=O)N5CCC[C@H]5C(=O)N(C)CC(=O)N(C)[C@@H](C(C)C)C(=O)O[C@@H]4C)c3nc-2c(C(=O)N[C@@H]2C(=O)N[C@H](C(C)C)C(=O)N3CCC[C@H]3C(=O)N(C)CC(=O)N(C)[C@@H](C(C)C)C(=O)O[C@@H]2C)c(N)c1=O", "note": "[Actinomycin D] (I: T[dV]P[Sar][NMeV] / II: T[dV]P[Sar][NMeV]; ester I:1-I:C, II:1-II:C; linker I:N-II:N via Actinocin(9to1))", "values": [
      {"measurement": "IC50", "setting": "UbC promoter", "result": 14, "unit": "nM"},
      {"measurement": "IC50", "setting": "Ovcar-3", "result": "> 20", "unit": "nM"},
      {"measurement": "IC50", "setting": "Skov-3", "result": "> 20", "unit": "nM"},
      {"measurement": "IC50", "setting": "TC-32", "result": 1, "unit": "nM"},
      {"measurement": "IC50", "setting": "A673", "result": 2.5, "unit": "nM"},
      {"measurement": "IC50", "setting": "TC-71", "result": 3, "unit": "nM"},
      {"measurement": "IC50", "setting": "PC-3", "result": "> 20", "unit": "nM"},
      {"measurement": "IC50", "setting": "EW-8", "result": 3.5, "unit": "nM"},
      {"measurement": "IC50", "setting": "Hela", "result": "> 20", "unit": "nM"},
      {"measurement": "IC50", "setting": "Cado-es", "result": 7, "unit": "nM"},
      {"measurement": "IC50", "setting": "p53", "result": "> 10", "unit": "µM"}
    ]}
  ]
}
